Values joined by “and” are separate entries in the source; they are usually repeats but may differ in a detail not shown here. Identical values can stand only once. e = 2'-O-(2-methoxyethyl) (MOE); d = 2'-deoxy (DNA)
Columns and labels:
[1] = tested on: human TGF-beta1 mRNA; experiment: Antisense inhibition of human TGF-beta1 mRNA in HuVEC cells, single 10 nM dose, Lipofectamine 2000 (Example 2); type: cell-based
Summary of the method: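 HuVEC cells (5,000/well) transfected with 10 nM 2-13-5 MOE gapmer (phosphorothioate, 5-methylcytosine) via Lipofectamine 2000 for 4 h, then recovered ~24 h. mRNA measured by qRT-PCR, normalized to RIBOGREEN total RNA; percent inhibition versus untreated cells.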

[2] = tested on: BALB/c mice; details: mouse, in vivo
Method: (§1) These gapmer oligonucleotides were designed to target human TGF-beta1 and have varying degrees of mismatch with murine TGF-beta1 sequence, as shown in Table 1. Oligo ID Nos. 413982 and 414040 have greater than 3 mismatches to the murine TGF-beta1 sequence. Oligo ID No. 414035 has 2 mismatches to murine TGF-beta1. Oligo ID No. 414036 has no mismatches to murine TGF-beta1.
(§2) BALB/c mice were injected with 25 mg/kg or 50 mg/kg of Oligo ID Nos. 413982, 414035, 414036, or 414040 twice a week for 4 weeks. A control group of mice was injected with phosphate buffered saline (PBS) twice a week for 4 weeks. Plasma transaminase levels were evaluated bi-weekly.
(§3) To evaluate the impact of TGF-beta1 antisense oligonucleotides on the hepatic function of mice described above, plasma concentrations of transaminases were measured using an automated clinical chemistry analyzer (Hitachi Olympus AU400e, Melville, N.Y.).

[3] = tested on: human TGF-beta1 mRNA; experiment: Dose-dependent antisense inhibition of human TGF-beta1 in HuVEC cells, Lipofectamine 2000, 0.3292-80 nM, comparison with oligos of U.S. Pat. No. 6,436,909 (Example 4); type: cell-based
Method: The dose-dependent antisense inhibition potential of these gapmers was compared with that of Oligo IDs 104992 and 1138498 from U.S. Pat. No. 6,436,909. Cells were plated at a density of 5,000 cells per well and transfected using Lipofectamine™ 2000 reagent with 0.3292 nM, 0.9877 nM, 2.963 nM, 8.8889 nM, 26.6667 nM, and 80 nM concentrations of antisense oligonucleotide for 4 hours, as specified in Table 4. After a recovery period of approximately 16 hours, RNA was isolated from the cells and TGF-beta1 mRNA levels were measured by quantitative real-time PCR. Human TGF-beta1 primer probe set RTS 2980 was used to measure mRNA levels. TGF-beta1 mRNA levels were adjusted according to total RNA content, as measured by RIBOGREEN®. Results are presented as percent inhibition of TGF-beta1, relative to untreated control cells. […] All the antisense oligonucleotides in Table 4 target human TGF-beta1 mRNA (SEQ ID NO: 1).

[4] = tested on: human TGF-beta1 mRNA; experiment: Dose-dependent confirmation of antisense inhibition of human TGF-beta1 in HuVEC cells, electroporation (Example 6); type: cell-based
Method: The gapmers from Example 5 (see Table 5) were also tested at various doses in HuVEC cells using electroporation as the transfection reagent. Cells were plated at a density of 20,000 cells per well and transfected using electroporation with 0.15625 nM, 0.3125 nM, 0.625 nM, 1.25 nM, 2.5 nM, 5 nM, 10 nM, and 20 nM concentrations of antisense oligonucleotide for 4 hours, as specified in Table 6. After a recovery period of approximately 16 hours, RNA was isolated from the cells and TGF-beta1 mRNA levels were measured by quantitative real-time PCR. TGF-beta1 mRNA levels were adjusted according to total RNA content, as measured by RIBOGREEN®. Results are presented as percent inhibition of TGF-beta1, relative to untreated control cells.

[5] = tested on: human TGF-beta1 mRNA; experiment: Dose-dependent antisense inhibition of human TGF-beta1 in HuVEC cells, Lipofectamine 2000, 0.9375-30 nM (Example 3); type: cell-based; details: Lipofectamine 2000
Summary of the method: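 HuVEC cells, 5,000/well, were transfected with Lipofectamine 2000 and 0.9375-30 nM antisense oligonucleotide for 4 h, then recovered about 16 h. TGF-beta1 mRNA was quantified by real-time PCR (primer probe set RTS 2980), normalised to RIBOGREEN total RNA, and expressed as percent inhibition versus untreated cells.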

[6] = tested on: BALB/c mice; experiment: Tolerability in BALB/c mice: plasma transaminases ALT and AST (Example 7); details: for aspartate transaminase levels: plasma
Method: as §1, §2, §3

[7] = tested on: murine TGF-beta1; experiment: Inhibition of murine TGF-beta1 expression (data not shown); design: species or system mouse
[8] = tested on: BALB/c mice; experiment: Tolerability in BALB/c mice: liver, kidney and spleen weights (Example 8); type: in vivo, mouse
Method: The mice were sacrificed 2 days after the last administration and liver, spleen and kidney weights were measured. Plasma transaminase levels were also evaluated.
The weights of liver, kidney and spleen of the mice were measured after 4 weeks and liver weights are presented in Table 10 as a percentage change compared to the corresponding weights in the PBS control. The percentage changes in kidney and spleen weight in the treated mice compared to the PBS control were negligible and are not shown.

414036 (antisense GTGTCCTTAAATACAGCCCC; sugars from the 5' end e2 d13 e5, backbone and methylation of C not given here) [compound 414036]
% inhibition ([1]; 10 nM oligonucleotide, HuVEC, relative to untreated control cells, gapmers targeted to SEQ ID NO: 1): 87%
inhibition of a TGF-beta1 mRNA ([1]; threshold lists of Oligo IDs, 10 nM): 60% and 65% and 70% and 75% and 80% and 85%
tolerability compared to Oligo ID 105204 [2]: improved tolerability
percent inhibition of TGF-beta1 ([3]; 0.3292 nM): 70%
percent inhibition of TGF-beta1 ([3]; 0.9877 nM): 83%
percent inhibition of TGF-beta1 ([3]; 2.963 nM): 91%
percent inhibition of TGF-beta1 ([3]; 8.8889 nM): 93%
percent inhibition of TGF-beta1 ([3]; 26.6667 nM): 92%
percent inhibition of TGF-beta1 ([3]; 80.0 nM): 89%
percent inhibition of TGF-beta1 mRNA relative to untreated control cells ([4]; 0.15625 nM oligonucleotide): 10%
percent inhibition of TGF-beta1 mRNA relative to untreated control cells ([4]; 0.3125 nM oligonucleotide): 38%
percent inhibition of TGF-beta1 mRNA relative to untreated control cells ([4]; 0.625 nM oligonucleotide): 55%
percent inhibition of TGF-beta1 mRNA relative to untreated control cells ([4]; 1.25 nM oligonucleotide): 74%
percent inhibition of TGF-beta1 mRNA relative to untreated control cells ([4]; 2.5 nM oligonucleotide): 83%
percent inhibition of TGF-beta1 mRNA relative to untreated control cells ([4]; 5.00 nM oligonucleotide): 92%
percent inhibition of TGF-beta1 mRNA relative to untreated control cells ([4]; 10.00 nM oligonucleotide): 94%
percent inhibition of TGF-beta1 mRNA relative to untreated control cells ([4]; 20 nM oligonucleotide): 92%
percent inhibition of TGF-beta1 ([5]; 0.9375 nM): 56%
percent inhibition of TGF-beta1 ([5]; 1.875 nM): 75%
percent inhibition of TGF-beta1 ([5]; 3.75 nM): 86%
percent inhibition of TGF-beta1 ([5]; 7.5 nM): 93%
percent inhibition of TGF-beta1 ([5]; 15 nM): 95%
percent inhibition of TGF-beta1 ([5]; 30 nM): 93%
alanine transaminase levels ([6]; 25 mg/kg twice a week, Week 2): 70 IU/L
alanine transaminase levels ([6]; 25 mg/kg twice a week, Week 4): 61 IU/L
aspartate transaminase levels ([6]; 25 mg/kg twice a week, Week 2): 119 IU/L
aspartate transaminase levels ([6]; 25 mg/kg twice a week, Week 4): 148 IU/L
alanine transaminase levels ([6]; 50 mg/kg twice a week, Week 2): 99 IU/L
alanine transaminase levels ([6]; 50 mg/kg twice a week, Week 4): 190 IU/L
aspartate transaminase levels ([6]; 50 mg/kg twice a week, Week 2): 183 IU/L
aspartate transaminase levels ([6]; 50 mg/kg twice a week, Week 4): 467 IU/L
increase in ALT/AST ([6]; 25 or 50 mg/kg twice a week for four weeks): < 8 fold
murine TGF-beta1 expression [7]: inhibits
Liver % Weight change relative to PBS control ([8]; 25 mg/kg twice a week for 4 weeks): +17%
Liver % Weight change relative to PBS control ([8]; 50 mg/kg twice a week for 4 weeks): +35%
increase in liver weight ([8]; 25 or 50 mg/kg twice a week for 4 weeks, vs PBS control): ≤ 35%

Source: patent US20110172296A1, “MODULATION OF TRANSFORMING GROWTH FACTOR-BETA 1 EXPRESSION” (priority 2010, published 2011)
